Where two headings read alike, the source gives them in different places.
Key:
[1] = official classification: non-sensitizer, irritant, or sensitizing Extreme/Strong/Moderate/Weak; cited from earlier work
[2] = test system: genes specific for sensitization (BRAK, CTSS, DAPK2, FABP4, HSP27, IL18, HSP90, IL1R2, TPSAB1, CXCR1, DEFB1, DHFR, EHF, IVL, KRT4, MELANA, NGAL, PDZK1IP1, PI3 …); experiment: Expression of the other (non-ARE) sensitization-specific genes in EPISKIN reconstructed skin (quantitative RT-PCR); format: cell-based, human; settings: for BRAK expression / CTSS expression / CXCR1 expression / DAPK2 expression / DEFB1 expression / DHFR expression / EHF expression / FABP4 expression / HSP27 expression / HSP90 expression / IL18 expression / IVL expression / KRT4 expression / MELANA expression / NGAL expression / P13 expression / PDZK1iP1 expression / SERPINB3 expression: compared to the control;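 on CTSS NUMBER OF GENES grade: grade scored against expression in the control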;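 on CXCR1 NUMBER OF GENES grade: grade scored against expression in the control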;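 on DAPK2 NUMBER OF GENES grade: grade scored against expression in the control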
[3] = test system: ARE gene family (AKR1B10, AKR1C1, AKR1C2, CYP1B1, FTH1P, FTL, G6PD, GCLM, NQO2, SLC7A11, TXNRD1, UGT1A1, UGT1A9, YWHAZ, CD36, CYP1A1, GCLC, HMOX1, NQO1, PSME2 …); settings: human, 6 h

In the case of `N#CCCC(Br)(C#N)CBr` (centres unmarked) [2-Bromo-2-(bromomethyl)glutaronitrile], the Class [1] is given as “S”.
In the case of `O=CCCCC=O` [Glutaraldehyde], the Class [1] is given as “S”.
For `CC(O)C(=O)O` (centres unmarked) [Lactic acid (cys pos), Lactic acid], the “BRAK NUMBER OF GENES grade” value ([2]; 1%) was 0 (if this expression is lower, the grade is 0), the “CTSS NUMBER OF GENES grade” value ([2]; 1%) was 0 (if this expression is lower, the grade is 0) and the “CXCR1 NUMBER OF GENES grade” value ([2]; 1%) was 0 (if this expression is lower, the grade is 0). The “DAPK2 NUMBER OF GENES grade” value ([2]; 1%) was 0 (if this expression is lower, the grade is 0), the “DEFB1 NUMBER OF GENES grade” value ([2]; 1%) was 0 (if this expression is lower, the grade is 0) and the “DHFR NUMBER OF GENES grade” value ([2]; 1%) was 0 (if this expression is lower, the grade is 0). For the same compound, the “EHF NUMBER OF GENES grade” value ([2]; 1%) was 0 (if this expression is lower, the grade is 0), the “FABP4 NUMBER OF GENES grade” value ([2]; 1%) was 0 (if this expression is lower, the grade is 0) and the “HSP27 NUMBER OF GENES grade” value ([2]; 1%) was 0 (if this expression is lower, the grade is 0). The “HSP90 NUMBER OF GENES grade” value ([2]; 1%) was 0 (if this expression is lower, the grade is 0), the “IL18 NUMBER OF GENES grade” value ([2]; 1%) was 0 (if this expression is lower, the grade is 0) and the “IVL NUMBER OF GENES grade” value ([2]; 1%) was 0 (if this expression is lower, the grade is 0). For the same compound, the “KRT4 NUMBER OF GENES grade” value ([2]; 1%) was 0 (if this expression is lower, the grade is 0), the “MELANA NUMBER OF GENES grade” value ([2]; 1%) was 0 (if this expression is lower, the grade is 0) and the “NGAL NUMBER OF GENES grade” value ([2]; 1%) was 0 (if this expression is lower, the grade is 0). For the same compound, the “P13 NUMBER OF GENES grade” value ([2]; 1%) was 0 (if this expression is lower, the grade is 0), the “PDZK1iP1 NUMBER OF GENES grade” value ([2]; 1%) was 0 (if this expression is lower, the grade is 0) and the “SERPINB3 NUMBER OF GENES grade” value ([2]; 1%) was 0 (if this expression is lower, the grade is 0). For the same compound, the “TOTAL SENS (number of genes)” value ([2]; 1%) was 0, the BRAK expression ([2]; 1%) was 0.8 and the CTSS expression ([2]; 1%) was 1.0. For the same compound, the CXCR1 expression ([2]; 1%) was 0.7, the DAPK2 expression ([2]; 1%) was 1.2 and the DEFB1 expression ([2]; 1%) was 0.9. It also gave a DHFR expression ([2]; 1%) of 0.9, an EHF expression ([2]; 1%) of 0.9 and an FABP4 expression ([2]; 1%) of 0.7. It also gave an HSP27 expression ([2]; 1%) of 1.0, an HSP90 expression ([2]; 1%) of 1.0 and an IL18 expression ([2]; 1%) of 0.9. For the same compound, the IVL expression ([2]; 1%) was 1.0, the KRT4 expression ([2]; 1%) was 0.9 and the MELANA expression ([2]; 1%) was 0.7. For the same compound, the NGAL expression ([2]; 1%) was 0.9, the P13 expression ([2]; 1%) was 0.8 and the PDZK1iP1 expression ([2]; 1%) was 1.0. The SERPINB3 expression ([2]; 1%) was 0.9, the “BRAK NUMBER OF GENES grade” value ([2]; 10%) was 0 (if this expression is lower, the grade is 0) and the “CTSS NUMBER OF GENES grade” value ([2]; 10%) was 0 (if this expression is lower, the grade is 0). The “CXCR1 NUMBER OF GENES grade” value ([2]; 10%) was 0 (if this expression is lower, the grade is 0), the “DAPK2 NUMBER OF GENES grade” value ([2]; 10%) was 0 (if this expression is lower, the grade is 0) and the “DEFB1 NUMBER OF GENES grade” value ([2]; 10%) was 0 (if this expression is lower, the grade is 0). The “DHFR NUMBER OF GENES grade” value ([2]; 10%) was 0 (if this expression is lower, the grade is 0), the “EHF NUMBER OF GENES grade” value ([2]; 10%) was 0 (if this expression is lower, the grade is 0) and the “FABP4 NUMBER OF GENES grade” value ([2]; 10%) was 0 (if this expression is lower, the grade is 0). The “HSP27 NUMBER OF GENES grade” value ([2]; 10%) was 0 (if this expression is lower, the grade is 0), the “HSP90 NUMBER OF GENES grade” value ([2]; 10%) was 0 (if this expression is lower, the grade is 0) and the “IL18 NUMBER OF GENES grade” value ([2]; 10%) was 0 (if this expression is lower, the grade is 0). For the same compound, the “IVL NUMBER OF GENES grade” value ([2]; 10%) was 0 (if this expression is lower, the grade is 0), the “KRT4 NUMBER OF GENES grade” value ([2]; 10%) was 0 (if this expression is lower, the grade is 0) and the “MELANA NUMBER OF GENES grade” value ([2]; 10%) was 0 (if this expression is lower, the grade is 0). The “NGAL NUMBER OF GENES grade” value ([2]; 10%) was 0 (if this expression is lower, the grade is 0), the “P13 NUMBER OF GENES grade” value ([2]; 10%) was 0 (if this expression is lower, the grade is 0) and the “PDZK1iP1 NUMBER OF GENES grade” value ([2]; 10%) was 0 (if this expression is lower, the grade is 0). The “SERPINB3 NUMBER OF GENES grade” value ([2]; 10%) was 0 (if this expression is lower, the grade is 0), the “TOTAL SENS (number of genes)” value ([2]; 10%) was 0 and the BRAK expression ([2]; 10%) was 1.0. For the same compound, the CTSS expression ([2]; 10%) was 1.1, the CXCR1 expression ([2]; 10%) was 0.7 and the DAPK2 expression ([2]; 10%) was 1.1. It also gave a DEFB1 expression ([2]; 10%) of 1.0, a DHFR expression ([2]; 10%) of 1.0 and an EHF expression ([2]; 10%) of 0.9. For the same compound, the FABP4 expression ([2]; 10%) was 0.9, the HSP27 expression ([2]; 10%) was 0.9 and the HSP90 expression ([2]; 10%) was 0.9. For the same compound, the IL18 expression ([2]; 10%) was 1.0, the IVL expression ([2]; 10%) was 0.9 and the KRT4 expression ([2]; 10%) was 0.8. It also gave an MELANA expression ([2]; 10%) of 0.8, an NGAL expression ([2]; 10%) of 1.0 and a P13 expression ([2]; 10%) of 0.8. For the same compound, the PDZK1iP1 expression ([2]; 10%) was 1.0, the SERPINB3 expression ([2]; 10%) was 1.1 and the “BRAK NUMBER OF GENES grade” value ([2]; 50%) was 0 (if this expression is lower, the grade is 0). For the same compound, the “CTSS NUMBER OF GENES grade” value ([2]; 50%) was 1 (If the expression is greater than 1.3 compared to the control, a grade of 11s given), the “CXCR1 NUMBER OF GENES grade” value ([2]; 50%) was 0 (if this expression is lower, the grade is 0) and the “DAPK2 NUMBER OF GENES grade” value ([2]; 50%) was 0 (if this expression is lower, the grade is 0). The “DEFB1 NUMBER OF GENES grade” value ([2]; 50%) was 0 (if this expression is lower, the grade is 0), the “DHFR NUMBER OF GENES grade” value ([2]; 50%) was 0 (if this expression is lower, the grade is 0) and the “EHF NUMBER OF GENES grade” value ([2]; 50%) was 0 (if this expression is lower, the grade is 0). The “FABP4 NUMBER OF GENES grade” value ([2]; 50%) was 0 (if this expression is lower, the grade is 0), the “HSP27 NUMBER OF GENES grade” value ([2]; 50%) was 0 (if this expression is lower, the grade is 0) and the “HSP90 NUMBER OF GENES grade” value ([2]; 50%) was 0 (if this expression is lower, the grade is 0). For the same compound, the “IL18 NUMBER OF GENES grade” value ([2]; 50%) was 0 (if this expression is lower, the grade is 0), the “IVL NUMBER OF GENES grade” value ([2]; 50%) was 0 (if this expression is lower, the grade is 0) and the “KRT4 NUMBER OF GENES grade” value ([2]; 50%) was 0 (if this expression is lower, the grade is 0). For the same compound, the “MELANA NUMBER OF GENES grade” value ([2]; 50%) was 0 (if this expression is lower, the grade is 0), the “NGAL NUMBER OF GENES grade” value ([2]; 50%) was 0 (if this expression is lower, the grade is 0) and the “P13 NUMBER OF GENES grade” value ([2]; 50%) was 0 (if this expression is lower, the grade is 0). The “PDZK1iP1 NUMBER OF GENES grade” value ([2]; 50%) was 0 (if this expression is lower, the grade is 0), the “SERPINB3 NUMBER OF GENES grade” value ([2]; 50%) was 0 (if this expression is lower, the grade is 0) and the “TOTAL SENS (number of genes)” value ([2]; 50%) was 1. It also gave a BRAK expression ([2]; 50%) of 0.7, a CTSS expression ([2]; 50%) of 1.4 and a CXCR1 expression ([2]; 50%) of 0.8. For the same compound, the DAPK2 expression ([2]; 50%) was 1.1, the DEFB1 expression ([2]; 50%) was 1.1 and the DHFR expression ([2]; 50%) was 0.9. It also gave an EHF expression ([2]; 50%) of 0.9, an FABP4 expression ([2]; 50%) of 0.8 and an HSP27 expression ([2]; 50%) of 0.8. For the same compound, the HSP90 expression ([2]; 50%) was 0.9, the IL18 expression ([2]; 50%) was 0.8 and the IVL expression ([2]; 50%) was 0.9. For the same compound, the KRT4 expression ([2]; 50%) was 0.8, the MELANA expression ([2]; 50%) was 0.6 and the NGAL expression ([2]; 50%) was 1.0. It also gave a P13 expression ([2]; 50%) of 0.9, a PDZK1iP1 expression ([2]; 50%) of 1.0 and an SERPINB3 expression ([2]; 50%) of 1.2. The CD36 expression ([3]; 1 %) was 1.1, the S100A8 expression ([3]; 1 %) was 0.8 and the CD36 expression ([3]; 10 %) was 1.1. The S100A8 expression ([3]; 10 %) was 1.0, the CD36 expression ([3]; 50 %) was 0.9 and the S100A8 expression ([3]; 50 %) was 1.1.

— US9255295B2, “Method for evaluating the sensitizing potential of a test compound” (IMMUNOSEARCH, priority 2010, dated 2016)
